Test results published in PMC8519428, “Structural analysis of the boronic acid β-lactamase inhibitor vaborbactam binding to Pseudomonas aeruginosa penicillin-binding protein 3” (PLoS ONE, 2021).

Target: T1, penicillin-binding protein 3 (PBP3) (Pseudomonas aeruginosa, UniProt G3XD46)
T1 construct: gene ftsI; final PBP3 model contains residues 57–190, 213–490, and 501–561
Test: X-ray crystal structure ([…] Å, soak); also Bocillin competition assay (IC50) and DSF thermal shift (about […] °C)

T1 sequence (G3XD46 50-579): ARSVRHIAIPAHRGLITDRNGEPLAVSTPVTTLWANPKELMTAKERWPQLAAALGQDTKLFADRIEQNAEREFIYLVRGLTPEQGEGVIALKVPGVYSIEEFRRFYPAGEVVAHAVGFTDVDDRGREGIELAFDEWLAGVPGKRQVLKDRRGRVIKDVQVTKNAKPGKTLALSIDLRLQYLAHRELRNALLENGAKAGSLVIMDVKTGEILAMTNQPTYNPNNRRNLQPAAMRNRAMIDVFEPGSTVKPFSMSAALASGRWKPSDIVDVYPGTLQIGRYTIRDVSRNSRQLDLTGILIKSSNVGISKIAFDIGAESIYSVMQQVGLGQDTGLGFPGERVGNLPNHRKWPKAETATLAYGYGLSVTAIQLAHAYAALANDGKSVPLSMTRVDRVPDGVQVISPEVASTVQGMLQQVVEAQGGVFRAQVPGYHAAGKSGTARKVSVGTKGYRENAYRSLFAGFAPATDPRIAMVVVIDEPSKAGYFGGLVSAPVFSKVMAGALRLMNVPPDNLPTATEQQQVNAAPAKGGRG

O=C(O)C[C@@H]1CC[C@H](NC(=O)Cc2cccs2)B(O)O1 [vaborbactam]
IC50: 262 µM
